Measured values published in patent US11225505B2, “Antimicrobial polymyxin derivative compounds” (MONASH UNIVERSITY, priority 2015, dated 2022).
In brackets after ≈: the same amount, converted by molar mass. Where two headings read alike, the source gives them in different places. Where a SMILES comes first, the peptide text is derived from it. Bridges are numbered along the chain shown (N, C = ends). [ ]: non-standard residue; d: D form. The star is where a group is joined. X37 = O=C(c1ccc(-c2ccc(Cl)cc2)s1)*; X30 = O=C(c1ccc(Cl)cn1)*; Dab = NCC[C@H](N)C(=O)O; X40 = Cc1cncc(C(=O)*)c1; Abu = CC[C@H](N)C(=O)O; Dap = NC[C@H](N)C(=O)O

Legend:
[1] = tested on: Acinetobacter baumannii FADDI-AB030; assay: microbe, parasite or virus in culture; assay type: cell-based
Method in brief: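 Lipopeptide TFA salts tested against the multidrug-resistant clinical isolate by CLSI (M100-S24) broth microdilution in cation-adjusted Mueller-Hinton broth, with polymyxin B sulphate as control; MIC read.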

[2] = tested on: mouse kidney; assay: Nephrotoxicity in a mouse model (kidney histology); assay type: in vivo
Protocol: Polymyxin B sulphate and colistin sulphate were supplied by Betapharma (Shanghai Co., Ltd, China). Stock solutions of compounds in saline (5 mg base/mL) were stored at 4° C. before use. Mice (n=3) were subcutaneously administered with the compound at 12 mg/kg of the free base form every 2 h, 6 doses in one day. At approximately 20 h after the last dose, mice were euthanised by inhalation of an overdose of isoflurane. Immediately after blood sampling, the right kidney from each mouse was collected immediately and placed in 10% formalin in 5 mL plastic tubes and the left kidney placed in a pre-weighed 14 mL plastic tubes, weighed again and stored at −20° C. pending homogenization and analysis of polymyxin B and colistin. The frozen kidney samples were thawed, homogenized in 2 mL of Milli-Q water and stored in a −20° C. freezer. The formalin-fixed kidneys were then sent to the Australian Phenomics Network-Histopathology and Organ Pathology (The University of Melbourne, Parkville, Australia) for histological examination. Samples were examined by a pathologist who was blind to the treatment groups.
Lesions were rated as follows: mild acute tubular damage with tubular dilation, prominent nuclei and a few pale tubular casts (Grade 1); severe acute tubular damage with necrosis of tubular epithelial cells and numerous tubular casts (Grade 2); acute cortical necrosis/infarction of tubules and glomeruli with or without papillary necrosis (Grade 3). The grades were given the following scores: grade 1=1, grade 2=4, and grade 3=10. The percentage of area of the kidney slice showing histological damage was scored as follows: <1%=0, 1 to <5%=1, 5 to <10%=2, 10 to <20%=3, 20 to <30%=4, 30 to <40%=5, and >40%=6. The overall kidney histological score was calculated as the product of the percentage score and grade score. These scores were then expressed as a semiquantitative score (Kidney Histological Score) on a scale of 0 to +5 for renal histological changes. These scores were assigned as follows: SQS 0=no significant change (overall score, <1); SQS +1=mild damage (overall score, 1 to <15); SQS +2=mild to moderate damage (overall score, 15 to <30); SQS +3=moderate damage (overall score, 30 to <45); SQS +4=moderate to severe damage (overall score, 45 to <60); and SQS +5=severe damage (overall score, ≥60) (Yousef, J., et al., (2011) Antimicrob. Agents and Chemother. 55 (9), 4044-4049).
Any compound with a kidney histological score of ≤+1.0 is considered to have a low nephrotoxicity in this model.

[3] = tested on: Enterobacter cloacae FADDI-EC003; assay type: cell-based
Method in brief: (§1)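 Broth microdilution, CAMHB, per CLSI M100-S24; lipopeptides as TFA salts; polymyxin B sulphate control. Read-out: MIC. Strains are polymyxin-susceptible; PA022 and AB034 are MDR clinical isolates.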

[4] = tested on: Klebsiella pneumoniae FADDI-KP022; assay type: cell-based
Method in brief: as §1

[5] = tested on: Enterobacter cloacae FADDI-EC006; assay type: cell-based
Method in brief: as §1

[6] = tested on: Pseudomonas aeruginosa FADDI-PA01; assay type: cell-based
Method in brief: as §1

[7] = tested on: Klebsiella pneumoniae FADDI-KP032; assay type: cell-based
Method in brief: as §1

[8] = tested on: Acinetobacter baumannii FADDI-AB034; assay type: cell-based
Method in brief: as §1

[9] = tested on: Pseudomonas aeruginosa ATCC 27853; assay type: cell-based
Method in brief: as §1

[10] = tested on: Acinetobacter baumannii ATCC 17978; assay type: cell-based
Method in brief: as §1

[11] = tested on: Enterobacter cloacae FADDI-EC001; assay type: cell-based
Method in brief: (§2)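 Standard CLSI (M100-S24) microdilution in cation-adjusted broth gives the MIC for each strain. Test compounds are TFA-salt lipopeptides; the comparator is polymyxin B sulphate.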

[12] = tested on: Pseudomonas aeruginosa FADDI-PA022; assay type: cell-based
Method in brief: as §1

[13] = tested on: Klebsiella pneumoniae Kp BM1; assay type: cell-based
Method in brief: as §2

[14] = tested on: Pseudomonas aeruginosa FADDI-PA038; assay type: cell-based
Method in brief: as §1

| Compound | Minimum inhibitory concentration ([1]; FADDI-AB030) | Minimum inhibitory concentration ([3]; FADDI-EC003) | Minimum inhibitory concentration ([4]; FADDI-KP022) | Minimum inhibitory concentration ([5]; FADDI-EC006) | Minimum inhibitory concentration ([6]; FADDI-) | Minimum inhibitory concentration ([7]; FADDI-KP032) | Minimum inhibitory concentration ([8]; FADDI-AB034) | Minimum inhibitory concentration ([9]; ATCC 27853) | Minimum inhibitory concentration ([10]; ATCC 17978) | Minimum inhibitory concentration ([11]; FADDI-EC001) | Minimum inhibitory concentration ([12]; FADDI-PA022) | Minimum inhibitory concentration ([13]; Kp BM1) | Minimum inhibitory concentration ([14]; FADDI-PA038) | other results |
| --- | --- | --- | --- | --- | --- | --- | --- | --- | --- | --- | --- | --- | --- | --- |
| Colistin [reference compound] | – | – | – | – | – | – | – | – | – | – | – | – | – | Minimum inhibitory concentration ([1]; A. baumannii FADDI-AB030, CAMHB broth microdilution): 0.25 µg/mL; nephrotoxicity in the mouse model (in words) ([2]; 12 mg/kg every 2 h, 6 doses, subcutaneous): severe nephrotoxicity; Max Overall Kidney Histological Score ([2]; mice (n=3), subcutaneous 12 mg/kg free base every 2 h, 6 doses in one day, kidney ~20 h after last dose): 60.0; Max Kidney Histological Score ([2]; semiquantitative score 0 to +5, mice (n=3), subcutaneous 12 mg/kg free base every 2 h, 6 doses in one day): +5 (SQS +5=severe damage (overall score, ≥60)); Minimum inhibitory concentration ([3]; E. cloacae FADDI-EC003, CAMHB broth microdilution): <0.125 µg/mL; Minimum inhibitory concentration ([4]; K. pneumoniae FADDI-KP022, CAMHB broth microdilution): 1 µg/mL; Minimum inhibitory concentration ([5]; E. cloacae FADDI-EC006, CAMHB broth microdilution): <0.125 µg/mL; Minimum inhibitory concentration ([6]; P. aeruginosa FADDI-PA01, CAMHB broth microdilution): 0.5 µg/mL; Minimum inhibitory concentration ([7]; K. pneumoniae FADDI-KP032, CAMHB broth microdilution): 1 µg/mL; Minimum inhibitory concentration ([8]; A. baumannii FADDI-AB034, CAMHB broth microdilution): 0.5 µg/mL; Minimum inhibitory concentration ([9]; P. aeruginosa ATCC 27853, CAMHB broth microdilution): 1 µg/mL; Minimum inhibitory concentration ([10]; A. baumannii ATCC 17978, CAMHB broth microdilution): 0.5 µg/mL; Minimum inhibitory concentration ([11]; E. cloacae FADDI-EC001, CAMHB broth microdilution): 0.25 µg/mL; Minimum inhibitory concentration ([12]; P. aeruginosa FADDI-PA022, CAMHB broth microdilution): 1 µg/mL; Minimum inhibitory concentration ([13]; K. pneumoniae Kp BM1, CAMHB broth microdilution): <0.125 µg/mL; Minimum inhibitory concentration ([14]; P. aeruginosa FADDI-PA038, CAMHB broth microdilution): 1 µg/mL |
| CC[C@@H]1NC(=O)[C@@H](CC(C)C)NC(=O)[C@H](CCN)NC(=O)[C@@H](NC(=O)[C@H](CN)NC(=O)[C@@H](NC(=O)[C@H](CCN)NC(=O)c2ccc(Cl)cn2)[C@@H](C)O)CCNC(=O)[C@H]([C@@H](C)O)NC(=O)[C@H](CCN)NC(=O)[C@H](CCN)NC1=O [Compound 37] (X30-[Dab]T[Dap][Dab][Dab][dL][Abu][Dab][Dab]T; lactam 4-C) | 0.5 µg/mL (≈ 0.444 µM) | 0.25 µg/mL (≈ 0.222 µM) | <0.125 µg/mL | 0.5 µg/mL (≈ 0.444 µM) | 0.25 µg/mL (≈ 0.222 µM) | <0.125 µg/mL | 1 µg/mL (≈ 0.888 µM) | 0.25 µg/mL (≈ 0.222 µM) | 2 µg/mL (≈ 1.78 µM) | 0.25 µg/mL (≈ 0.222 µM) | 0.25 µg/mL (≈ 0.222 µM) | <0.125 µg/mL | 0.5 µg/mL (≈ 0.444 µM) | – |
| CC[C@@H]1NC(=O)[C@@H](CC(C)C)NC(=O)[C@H](CCN)NC(=O)[C@@H](NC(=O)[C@H](CN)NC(=O)[C@@H](NC(=O)[C@H](CCN)NC(=O)c2cncc(C)c2)[C@@H](C)O)CCNC(=O)[C@H]([C@@H](C)O)NC(=O)[C@H](CCN)NC(=O)[C@H](CCN)NC1=O [Compound 30] (X40-[Dab]T[Dap][Dab][Dab][dL][Abu][Dab][Dab]T; lactam 4-C) | 4 µg/mL (≈ 3.62 µM) | 0.5 µg/mL (≈ 0.452 µM) | 0.25 µg/mL (≈ 0.226 µM) | 2 µg/mL (≈ 1.81 µM) | 0.5 µg/mL (≈ 0.452 µM) | 2 µg/mL (≈ 1.81 µM) | 4 µg/mL (≈ 3.62 µM) | 0.5 µg/mL (≈ 0.452 µM) | 8 µg/mL (≈ 7.23 µM) | 0.5 µg/mL (≈ 0.452 µM) | 0.5 µg/mL (≈ 0.452 µM) | 1 µg/mL (≈ 0.904 µM) | 1 µg/mL (≈ 0.904 µM) | – |
| CC(C)C[C@H]1NC(=O)[C@H](CCN)NC(=O)[C@@H](NC(=O)[C@H](CN)NC(=O)[C@@H](NC(=O)[C@H](CCN)NC(=O)c2ccc(-c3ccc(Cl)cc3)s2)[C@@H](C)O)CCNC(=O)[C@H]([C@@H](C)O)NC(=O)[C@H](CCN)NC(=O)[C@H](CCN)NC(=O)[C@H]([C@@H](C)O)NC1=O [Compound 17] (X37-[Dab]T[Dap][Dab][Dab][dL]T[Dab][Dab]T; lactam 4-C) | 0.25 µg/mL (≈ 0.204 µM) | 1 µg/mL (≈ 0.817 µM) | <0.125 µg/mL | 0.5 µg/mL (≈ 0.409 µM) | 0.5 µg/mL (≈ 0.409 µM) | 0.5 µg/mL (≈ 0.409 µM) | 1 µg/mL (≈ 0.817 µM) | 1 µg/mL (≈ 0.817 µM) | 2 µg/mL (≈ 1.63 µM) | 0.25 µg/mL (≈ 0.204 µM) | 1 µg/mL (≈ 0.817 µM) | 0.5 µg/mL (≈ 0.409 µM) | 1 µg/mL (≈ 0.817 µM) | – |
